Experimental findings from patent publication US20080075796A1, “Compositions and Methods for Controlling Insects” (TyraTech, Inc., priority 2003, published 2008) are described below.

In assay [1] the test system is Drosophila melanogaster tyramine receptor (TyrR), SEQ ID NO: 2. As to the kind of experiment: Inhibition of 3H-tyramine binding to membranes of Schneider cells expressing TyrR. The note with it: compared with tyramine, FIG. 4. As to the method:
Phage DNA is purified from this library using a liquid culture lysate.
In order to determine the pharmacological profile of tyramine receptor (TyrR), the ability of a number of putative Drosophila neurotransmitters to displace ^3H-tyramine (^3H-TA) binding from membranes expressing tyramine receptor is tested.

A further assay addresses T1, tyramine receptor (TyrR) (Drosophila melanogaster, UniProt P22270).
T1 sequence (P22270 27-601): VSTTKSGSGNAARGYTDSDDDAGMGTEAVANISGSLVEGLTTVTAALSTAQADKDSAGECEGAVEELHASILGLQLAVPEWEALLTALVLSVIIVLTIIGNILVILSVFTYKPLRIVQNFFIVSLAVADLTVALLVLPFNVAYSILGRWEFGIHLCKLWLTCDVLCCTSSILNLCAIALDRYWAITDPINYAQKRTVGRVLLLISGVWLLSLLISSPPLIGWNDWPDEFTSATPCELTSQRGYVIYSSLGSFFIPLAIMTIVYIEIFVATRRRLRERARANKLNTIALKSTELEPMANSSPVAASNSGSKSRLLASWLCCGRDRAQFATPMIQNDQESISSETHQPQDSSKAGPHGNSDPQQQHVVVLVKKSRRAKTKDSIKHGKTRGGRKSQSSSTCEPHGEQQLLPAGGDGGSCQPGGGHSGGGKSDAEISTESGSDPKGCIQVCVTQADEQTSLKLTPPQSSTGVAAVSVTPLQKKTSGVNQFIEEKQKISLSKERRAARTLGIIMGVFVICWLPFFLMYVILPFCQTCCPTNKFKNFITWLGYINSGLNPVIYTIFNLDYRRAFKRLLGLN
As to the kind of experiment: Saturation binding of ^3H-tyramine to membranes from Schneider cells expressing tyramine receptor. The note with it: saturation binding, membranes expressing TyrR.

Assay [2] concerns Drosophila melanogaster Or83b olfactory receptor, SEQ ID NO: 6. As to the kind of experiment: Interaction of plant essential oils with Or83b receptor binding site (3H-tyramine). The note with it: membranes, FIGS. 16, 18-21. As to the method: (§1) Total RNA is prepared from the head and antenna of wild type Drosophila melanogaster using Trizol Reagent (Invitrogen). They are homogenized in the Trizol using a motor driven teflon pestle and glass homogenizer. RNA is then prepared as per the manufacturer's instructions and includes removal of proteoglycans and polysaccharides by precipitation. The total RNA is reverse transcribed using oligo-dT as a primer and MuLV reverse transcriptase (Applied Biosystems). […] The Sense oligonucleotides contain Not I sites and the antisense oligonucleotides contain Sac II sites. Both restriction sites are indicated by underlined nucleotide. […] For PCR amplification of Or83b, Vent polymerase (New England Biolabs) is used with the following conditions: about 95° C., about 5 min for about 1 cycle; about 95° C., about 30 sec; and about 70° C., about 90 sec for about 40 cycles; and about 70° C., about 10 min for about 1 cycle. For PCR amplification of Or43a, the Failsafe PCR premix selection kit (Epicentre Technologies) is used with the following conditions: about 95° C., about 5 mill for about 1 cycle; about 95° C., about 30 sec; about 60° C., about 30 sec and about 70° C., about 90 sec for about 50 cycles; and about 70° C., about 10 min for about 1 cycle. […] The PCR products are digested with Sac II and Not I, gel purified and ligated into pAC 5.1/N5 His B (Invitrogen). Inserts are sequenced on both strands by automated fluorescent sequencing (Vanderbilt Cancer Center).
(§2) To address whether Or83b receptor and Or43a receptor contain a specific binding site for tyramine, membranes expressing Or83b receptor or Or43a receptor are prepared from cells expressing either receptor, as described above, and used for competitive binding with ^3H-tyramine. The binding assay protocol is exactly as described for cells expressing TyrR, as described above.
(§3) The cells expressing one of the olfactory receptors are used to investigate the interaction of plant essential oils with these receptors and the signaling cascade downstream of each receptor.
(§4) For the binding activity, membranes are prepared from each cell model and used to investigate the interaction of plant essential oil with the receptor binding site.

Assay [3] deals with Drosophila melanogaster Or43a olfactory receptor, SEQ ID NO: 4. As to the kind of experiment: Interaction of plant essential oils with Or43a receptor binding site (3H-tyramine). The note with it: membranes, FIGS. 16, 17, 19-21. As for the experimental part: as §1, §2, §3, §4
Assay [4] deals with Or83b and Or43a receptors. Kind of assay: Interaction of plant essential oils with olfactory receptor binding site (membranes, ^3H-tyramine). On the set-up: species or system Drosophila melanogaster. The note with it: membranes incubated with ^3H-tyramine. As to the method: as §3, §4
The subject of a further assay is farm ants. Kind of assay: Repellent effect on farm ants (treated filter paper). The class given is in vivo. The note with it: for repellency: in words. As to the method: Adult insect are randomly selected for testing the repellent effect of compositions and are not individually marked. About 5 insects per replicate are used. About 3 replicates are used for each treatment. Untreated control tests are included with only solvent (acetone) application to an equal sized population/replications, held under identical conditions. A filter paper (about 80 cm^2) is treated with the composition (about 100 mg in […] acetone). After about 3 min of air drying, the filter paper is placed in a dish and repellency against insects is performed. Insects are released to the dish, one insect at a time at the far end of the dish. Using one or more stopwatches, the time spent on either the filter paper or the untreated surface of the dish is recorded up to about 300 seconds. Repellency ratio (RR) is calculated as follows: RR=[(time on control surface−time on treated surface)/total time of test].
The repellent effect of various plant essential oils is tested by treating a filter paper with the test oils. After about five minutes at room temperature, the paper is placed in a dish and ants are introduced one at a time. […] Oils are tested alone. Additionally, oils are mixed to form compositions, which are then tested.

For a further assay, the target named is T2, Or43a receptor (Drosophila melanogaster, UniProt P81917, L154V).
T2 construct: His (from vector pAc5.1/V5-His B) (C); expressed in transfected cells
As to the kind of experiment: Intracellular Ca^2+ mobilization in Schneider cells expressing Or43a receptor. Format: cell-based. The note with it: before vs approximately 150 seconds after treatment. As for the experimental part: Intracellular calcium ion concentrations ([Ca^2+]i) are measured by using the acetoxymethyl (AM) ester of the fluorescent indicator fura-2 (Enan, et al., Biochem. Pharmacol vol 51, 447-454). In this study, cells expressing tyramine receptor are grown under standard conditions. A cell suspension is prepared in assay buffer (140 mM NaCL, 10 mM HEPES, 10 mM glucose, 5 mM KCl, 1 mM CaCl2, 1 mM MgCl2) and cell number adjusted to about 2×10^6 cells per ml. Briefly, about 1.0 ml cell suspension (about 2×10^6 cells) is incubated with about 5 μM Fura 2/AM for about 30 min at about 28° C. After incubation, the cells are pelleted at about 3700 rpm for about 10 sec at room temperature and then resuspended in about 1.5 ml assay buffer. [Ca^2+]i changes are analyzed in spectrofluorometer in the presence and absence of test chemicals. Excitation wave lengths are about 340 nm (generated by Ca^2+-bound fura-2) and about 380 nm (corresponding to Ca^2+-free fura-2). The fluorescence intensity is monitored at an emission wave length of about 510 nm. No absorbance of fluorescence artifacts are observed with any of the compounds used. The ratio of about 340/380 nm is calculated and plotted as a function of time.
Intracellular Ca^2+ levels are measured using the method described above in Example 3.
Changes in intracellular Ca^2+ levels are calculated based on the difference between the 340/380 fluorescence ratios before and after approximately 150 seconds of the treatment.

T2 sequence (P81917 whole entry L154V): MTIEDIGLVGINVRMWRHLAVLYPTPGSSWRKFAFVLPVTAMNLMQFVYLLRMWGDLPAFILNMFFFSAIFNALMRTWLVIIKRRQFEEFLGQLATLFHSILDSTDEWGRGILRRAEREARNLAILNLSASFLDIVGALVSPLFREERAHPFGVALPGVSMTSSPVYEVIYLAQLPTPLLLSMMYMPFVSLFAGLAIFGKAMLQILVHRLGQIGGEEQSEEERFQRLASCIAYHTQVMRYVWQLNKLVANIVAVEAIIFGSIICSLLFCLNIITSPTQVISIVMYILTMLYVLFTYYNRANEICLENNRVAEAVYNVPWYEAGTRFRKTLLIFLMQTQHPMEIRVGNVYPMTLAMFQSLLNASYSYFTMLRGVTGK

On to `NCCc1ccc(O)c(O)c1` [Dopamine], for which the “displacing 3H-tyramine binding” value in assay [1] was “less efficient than tyramine”.
The same measure, in the same setting: in the case of `NCC(O)c1ccc(O)cc1` (centres unmarked) [Octopamine] it was “less efficient than tyramine”; in that of `NCCc1c[nH]c2ccc(O)cc12` [Serotonin], “less efficient than tyramine”.
Broadly, the Kd is the constant that tells how readily two partners part at equilibrium. A higher Kd goes with weaker binding. As to `NCCc1ccc(O)cc1` [^3H-tyramine], on tyramine receptor (TyrR), the Bmax result was “about 0.679 pmol/mg protein” and the Kd is about 1.26 nM.
For `C=C1CCC2(C(C)C)CC12` (centres unmarked) [sabinene], the “interaction with the olfactory receptor” value in assay [2] and in assay [3] was “interact” throughout. For the same compound, in assay [4], the “interaction with the olfactory receptors” value is reported as “interact with the olfactory receptors”. The repellency result in the assay with farm ants is listed as “display repellency”. For the same compound, at Or43a receptor, the “change in intracellular Ca^2+ levels (340/380 fluorescence ratio)” value (shortened to “change … (340/380 fluorescence ratio)”) was “calcium mobilization”.
For the compound `CC1=CCC2CC1C2(C)C` (stereo not drawn) [α-pinene], the “interaction with the olfactory receptor” value in assay [2] and in assay [3] was “interact” throughout. Further, in assay [4], the “interaction with the olfactory receptors” value is listed as “interact with the olfactory receptors”. Moreover, the “Repellency %, R %” value stood at 48.4% in the assay on farm ants (Day 0) and 07.2% in the assay on farm ants (Day 1). Further, the “sec. on T surface” value in the assay on farm ants (Day 0, time on treated surface of up to about 300 seconds) is 77.4 s; in the assay on farm ants (Day 1), 139.2 s. Besides, the “change … (340/380 fluorescence ratio)” value at Or43a receptor was “calcium mobilization”.
As for `CC(C)[C@]12CC(=O)[C@H](C)[C@H]1C2` [α-thujone], the “interaction with the olfactory receptor” value in assay [2] and in assay [3] was “interact” in each case. In assay [4], the “interaction with the olfactory receptors” value is “interact with the olfactory receptors”. The repellency result with farm ants is on record as “display repellency”. At Or43a receptor, the “change … (340/380 fluorescence ratio)” value is on record as “calcium mobilization”.
